One series deals with T1, human soluble ENPP1 (Homo sapiens, UniProt P22413).
T1 construct: 20 ng of human soluble ENPP1
T1 sequence (P22413 103-925 limits assumed): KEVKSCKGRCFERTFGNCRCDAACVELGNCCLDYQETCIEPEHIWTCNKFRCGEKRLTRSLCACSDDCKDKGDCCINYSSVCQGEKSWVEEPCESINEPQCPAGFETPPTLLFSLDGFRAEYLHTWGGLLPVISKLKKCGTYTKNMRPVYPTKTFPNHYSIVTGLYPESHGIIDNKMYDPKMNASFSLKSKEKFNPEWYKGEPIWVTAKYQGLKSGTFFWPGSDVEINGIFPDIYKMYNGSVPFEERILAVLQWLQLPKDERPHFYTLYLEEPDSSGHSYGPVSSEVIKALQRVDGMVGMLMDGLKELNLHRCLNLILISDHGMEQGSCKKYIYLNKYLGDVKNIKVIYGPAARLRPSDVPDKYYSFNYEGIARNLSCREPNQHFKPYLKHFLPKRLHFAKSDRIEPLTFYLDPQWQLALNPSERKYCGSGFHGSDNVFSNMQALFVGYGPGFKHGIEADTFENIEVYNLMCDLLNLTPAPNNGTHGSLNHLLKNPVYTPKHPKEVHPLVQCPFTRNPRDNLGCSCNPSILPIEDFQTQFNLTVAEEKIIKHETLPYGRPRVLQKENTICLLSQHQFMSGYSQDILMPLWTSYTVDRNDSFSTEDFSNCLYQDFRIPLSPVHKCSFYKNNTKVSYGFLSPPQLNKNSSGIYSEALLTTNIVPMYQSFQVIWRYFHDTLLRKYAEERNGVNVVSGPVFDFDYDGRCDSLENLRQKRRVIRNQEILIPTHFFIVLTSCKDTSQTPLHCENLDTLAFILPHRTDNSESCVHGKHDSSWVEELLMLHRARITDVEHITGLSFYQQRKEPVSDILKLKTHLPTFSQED
Description: ENPP1 activity assay using p-Nitrophenyl-5′-AMP as a substrate. Type of series: biochemical. In a few lines: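 Human soluble ENPP1 (35 ng) preincubated with inhibitor 30 min at RT, then p-nitrophenyl-5′-AMP added (3 mM solution, 2× final) and incubated 1 h at RT. p-Nitrophenolate release read at OD 405 nm; % inhibition vs no-inhibitor and blank controls, IC50 from four-parameter fit.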

The target of another series is T2, ENPP-1, MDA-MB-231 cells (Homo sapiens, UniProt P22413).
T2 sequence (P22413 1-925): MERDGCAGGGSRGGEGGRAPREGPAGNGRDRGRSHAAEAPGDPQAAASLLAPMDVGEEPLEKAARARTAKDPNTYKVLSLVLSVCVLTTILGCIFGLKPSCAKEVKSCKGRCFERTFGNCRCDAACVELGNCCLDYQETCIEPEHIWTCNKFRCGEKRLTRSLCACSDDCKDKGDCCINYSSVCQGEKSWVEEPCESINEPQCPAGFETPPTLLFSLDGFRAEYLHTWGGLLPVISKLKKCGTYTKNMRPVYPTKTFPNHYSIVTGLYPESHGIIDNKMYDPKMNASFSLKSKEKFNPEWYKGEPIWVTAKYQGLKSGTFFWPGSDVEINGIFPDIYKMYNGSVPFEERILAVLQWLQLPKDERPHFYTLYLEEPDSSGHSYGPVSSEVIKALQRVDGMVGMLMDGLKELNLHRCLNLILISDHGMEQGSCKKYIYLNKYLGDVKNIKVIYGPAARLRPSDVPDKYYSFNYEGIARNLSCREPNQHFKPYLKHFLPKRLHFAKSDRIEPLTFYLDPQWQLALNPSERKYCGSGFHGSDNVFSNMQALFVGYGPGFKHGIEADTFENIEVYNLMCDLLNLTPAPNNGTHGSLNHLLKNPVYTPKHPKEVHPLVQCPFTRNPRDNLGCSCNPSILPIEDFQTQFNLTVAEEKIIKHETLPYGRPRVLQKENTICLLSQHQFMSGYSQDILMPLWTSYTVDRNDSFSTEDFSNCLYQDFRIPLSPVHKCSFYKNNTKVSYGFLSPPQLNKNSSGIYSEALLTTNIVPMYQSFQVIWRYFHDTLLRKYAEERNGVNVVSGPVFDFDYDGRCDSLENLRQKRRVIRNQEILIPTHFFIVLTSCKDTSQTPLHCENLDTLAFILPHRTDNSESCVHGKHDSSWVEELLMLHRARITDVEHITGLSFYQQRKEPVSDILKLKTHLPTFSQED
In words: cell-based. The following applies: for inhibition at 20 µM: MDA-MB-231, read-out: % Inhibition (at 20 μM).

The nature of another series: Pharmacokinetics in mice. Format: in vivo. Particulars: mouse, plasma, male CD-1 mice; for AUC / clearance / half-life / Vd: 1 mg/kg, iv; for Vd: read-out: Vdss. In a few lines: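 Male CD-1 mice (3 per group) dosed at 1 mg/kg IV bolus and 5 mg/kg oral gavage in 5% DMSO/40% PEG400/55% water. Jugular blood sampled from 0.033 (IV) or 0.083 (PO) up to 24 h. Plasma measured by LC/MS/MS, with PK parameters from non-compartmental analysis.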

Each structure is given as a SMILES string.

The text below walks through data of patent publication US11673889B2, “Substituted imidazo[4,5-c][1,8]naphthyridines as phosphodiesterase inhibitors” (Nanjing Zhengxiang Pharmaceuticals Co., Ltd., priority 2019, dated 2023).

On human soluble ENPP1, `COc1cc2ncc3ncn(Cc4ccc(S(N)(=O)=O)cn4)c3c2cc1OC` [Compound 12, 6-((7,8-dimethoxy-1H-imidazo[4,5-c]quinolin-1-yl)methyl)pyridine-3-sulfonamide] gave an IC50 of 0.0039 µM. For the same molecule, at ENPP-1, MDA-MB-231 cells, the IC50 worked out at 0.55 µM and the inhibition at 20 µM came out at 79%. In “Pharmacokinetics in mice”, the AUC was determined as 93 ng·h/mL, the clearance was determined as 180 mL/min/kg, the half-life is 15 min and the Vd came out at 2.9 L/kg. Further, the bioavailability in the series “Pharmacokinetics in mice” (oral gavage (PO) at 5 mg/kg vs IV 1 mg/kg) came to 0%.
Regarding `COc1ccc2c(n1)nc(C)c1nc(C)n(Cc3ccc(S(N)(=O)=O)cn3)c12` [Compound 89, 6-((7-methoxy-2,4-dimethyl-1H-imidazo[4,5-c][1,8]naphthyridin-1-yl)methyl)pyridine-3-sulfonamide], half-maximal inhibition on human soluble ENPP1 (IC50) was put at 0.0021 µM. Further, on ENPP-1, MDA-MB-231 cells, the IC50 was 0.41 µM and the inhibition at 20 µM came to 78%. In “Pharmacokinetics in mice”, the AUC came out at 656 ng·h/mL, the clearance stood at 26 mL/min/kg, the half-life was 32.4 min and the Vd turned out to be 0.8 L/kg.
Molecule `COc1ccc2c(ncc3nc(C)n(Cc4ccc(S(N)(=O)=O)cc4)c32)n1` [Compound 48, 4-((7-methoxy-2-methyl-1H-imidazo[4,5-c][1,8]naphthyridin-1-yl)methyl)benzenesulfonamide] showed an IC50 at human soluble ENPP1 of 0.00044 µM. Also, at ENPP-1, MDA-MB-231 cells, the IC50 was found to be 0.55 µM and the inhibition at 20 µM stood at 80%. In “Pharmacokinetics in mice”, the AUC was 239 ng·h/mL, the clearance worked out at 70 mL/min/kg, the half-life is 19.8 min and the Vd amounted to 1.7 L/kg.
